Read-outs that look alike come from different tables or passages of the source.

One assay relates to U87MG tumour cells. As to the kind of experiment: Test of in vitro proliferation of U87MG tumour cells. Type of assay: cell-based. The settings on record: U87MG cells, 72 hours, read-out: U87 Cell Proliferation IC50. As to the method:
Model 4: Test of in vitro Proliferation of U87MG Tumour Cells.
The cell growth is determined with the reagent CellTiter 96 AQueous One Solution Cell Proliferation Assay from Promega (Cat. No. G3581).

Assay [1] deals with mTOR (human recombinant aa mTOR 1360-2549) (Homo sapiens (Human), UniProt P42345). As to the kind of experiment: mTOR enzymatic test by TR-FRET (phosphorylation of GFP-4EBP1). In kind it is biochemical. Summed up: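 TR-FRET detection of GFP-4EBP1 phosphorylation by a terbium-labelled anti-phospho-Thr46 antibody. Kinase reaction ran 30 min at room temperature, was quenched with EDTA (10 mM final) plus Tb-antibody (2 nM final) and left 60 min. Emission at 520 and 490 nm after 340 nm excitation, reported as the 520/490 ratio.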
Background: In TR-FRET formats the signal depends on donor and acceptor labels being close together.

In a further assay the target is PI3Kα (p110α/p85α) (Homo sapiens (Human), UniProt P42336). As to the kind of experiment: PI3Kα enzymatic test by measuring the consumption of ATP. Type of assay: biochemical. The procedure, abridged:
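p110α/p85α (1.7 μg/ml) with 50 μM PIP2 and 2 μM ATP in pH 7.5 Tris buffer with EGTA, MgCl2, Chaps, DTT; reaction 90 min. Remaining ATP measured by luciferin/luciferase luminescence; IC50 from threefold serial dilutions spanning at least 10 000-fold.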

Where [2] appears, read: Homo sapiens, U-87 MG, read-out: U87 Akt-pS473 % Inhibition or IC50, nM (IC50), U87MG cells.

mTOR (human recombinant aa mTOR 1360-2549), sequence (P42345 1360-2549): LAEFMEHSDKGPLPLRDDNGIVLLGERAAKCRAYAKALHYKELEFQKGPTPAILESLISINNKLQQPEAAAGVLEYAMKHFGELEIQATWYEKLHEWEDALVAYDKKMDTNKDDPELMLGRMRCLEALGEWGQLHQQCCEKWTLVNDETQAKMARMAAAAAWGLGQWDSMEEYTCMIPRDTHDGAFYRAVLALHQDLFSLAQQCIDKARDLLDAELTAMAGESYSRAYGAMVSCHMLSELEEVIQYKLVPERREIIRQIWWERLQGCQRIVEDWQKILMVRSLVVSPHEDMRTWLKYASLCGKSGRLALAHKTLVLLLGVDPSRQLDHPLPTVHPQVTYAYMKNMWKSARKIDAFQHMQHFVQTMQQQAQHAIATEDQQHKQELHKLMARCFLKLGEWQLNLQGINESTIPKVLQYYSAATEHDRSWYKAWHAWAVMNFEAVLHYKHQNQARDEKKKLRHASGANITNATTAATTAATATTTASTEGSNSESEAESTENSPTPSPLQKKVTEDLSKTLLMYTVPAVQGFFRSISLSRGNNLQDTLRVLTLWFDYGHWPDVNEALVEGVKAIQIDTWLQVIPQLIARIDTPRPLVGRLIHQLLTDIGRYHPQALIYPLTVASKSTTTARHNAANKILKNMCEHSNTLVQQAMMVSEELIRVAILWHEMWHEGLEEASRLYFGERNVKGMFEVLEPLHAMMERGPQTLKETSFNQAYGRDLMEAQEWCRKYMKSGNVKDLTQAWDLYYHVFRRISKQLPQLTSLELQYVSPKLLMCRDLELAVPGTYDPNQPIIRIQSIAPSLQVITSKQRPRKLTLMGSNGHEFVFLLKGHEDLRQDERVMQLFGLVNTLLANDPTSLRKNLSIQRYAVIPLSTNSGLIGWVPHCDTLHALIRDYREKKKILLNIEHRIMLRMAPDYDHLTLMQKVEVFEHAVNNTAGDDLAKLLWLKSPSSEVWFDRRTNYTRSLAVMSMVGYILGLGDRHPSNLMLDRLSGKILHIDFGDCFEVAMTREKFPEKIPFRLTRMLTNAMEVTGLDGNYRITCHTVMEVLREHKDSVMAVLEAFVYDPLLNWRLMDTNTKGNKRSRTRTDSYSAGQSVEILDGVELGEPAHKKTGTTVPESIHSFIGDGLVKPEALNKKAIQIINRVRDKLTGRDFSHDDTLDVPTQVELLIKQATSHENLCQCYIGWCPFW
PI3Kα (p110α/p85α), sequence (P42336 whole entry): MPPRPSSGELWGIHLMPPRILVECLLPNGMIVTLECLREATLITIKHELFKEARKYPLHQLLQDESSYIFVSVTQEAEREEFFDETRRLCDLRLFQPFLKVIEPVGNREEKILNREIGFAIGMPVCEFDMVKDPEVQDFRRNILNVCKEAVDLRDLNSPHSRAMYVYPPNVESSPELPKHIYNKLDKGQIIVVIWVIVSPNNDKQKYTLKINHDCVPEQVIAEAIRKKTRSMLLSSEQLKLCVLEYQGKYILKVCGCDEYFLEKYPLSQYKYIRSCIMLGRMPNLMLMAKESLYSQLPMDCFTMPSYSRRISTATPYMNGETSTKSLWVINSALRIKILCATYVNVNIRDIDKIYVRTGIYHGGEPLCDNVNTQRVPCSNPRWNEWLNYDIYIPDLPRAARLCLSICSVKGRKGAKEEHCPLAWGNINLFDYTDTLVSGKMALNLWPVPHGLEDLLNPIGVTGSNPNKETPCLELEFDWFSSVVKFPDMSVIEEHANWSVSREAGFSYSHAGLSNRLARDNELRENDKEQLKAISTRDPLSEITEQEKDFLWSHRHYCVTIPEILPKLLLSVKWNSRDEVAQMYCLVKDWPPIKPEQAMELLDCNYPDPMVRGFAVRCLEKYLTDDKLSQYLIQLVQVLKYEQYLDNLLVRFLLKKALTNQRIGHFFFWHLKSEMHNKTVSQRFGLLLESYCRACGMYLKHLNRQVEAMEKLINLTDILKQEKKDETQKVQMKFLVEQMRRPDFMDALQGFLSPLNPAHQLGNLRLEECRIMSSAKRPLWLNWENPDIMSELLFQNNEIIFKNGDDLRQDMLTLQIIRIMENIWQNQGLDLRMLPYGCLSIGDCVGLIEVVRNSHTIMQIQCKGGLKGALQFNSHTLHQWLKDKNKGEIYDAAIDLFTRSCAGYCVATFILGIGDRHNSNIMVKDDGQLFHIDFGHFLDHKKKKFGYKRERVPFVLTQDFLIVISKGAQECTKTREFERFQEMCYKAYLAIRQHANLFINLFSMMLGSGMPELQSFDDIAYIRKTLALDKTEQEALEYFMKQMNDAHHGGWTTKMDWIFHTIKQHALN
PI3Kα (p110α/p85α), sequence (P27986 whole entry partner): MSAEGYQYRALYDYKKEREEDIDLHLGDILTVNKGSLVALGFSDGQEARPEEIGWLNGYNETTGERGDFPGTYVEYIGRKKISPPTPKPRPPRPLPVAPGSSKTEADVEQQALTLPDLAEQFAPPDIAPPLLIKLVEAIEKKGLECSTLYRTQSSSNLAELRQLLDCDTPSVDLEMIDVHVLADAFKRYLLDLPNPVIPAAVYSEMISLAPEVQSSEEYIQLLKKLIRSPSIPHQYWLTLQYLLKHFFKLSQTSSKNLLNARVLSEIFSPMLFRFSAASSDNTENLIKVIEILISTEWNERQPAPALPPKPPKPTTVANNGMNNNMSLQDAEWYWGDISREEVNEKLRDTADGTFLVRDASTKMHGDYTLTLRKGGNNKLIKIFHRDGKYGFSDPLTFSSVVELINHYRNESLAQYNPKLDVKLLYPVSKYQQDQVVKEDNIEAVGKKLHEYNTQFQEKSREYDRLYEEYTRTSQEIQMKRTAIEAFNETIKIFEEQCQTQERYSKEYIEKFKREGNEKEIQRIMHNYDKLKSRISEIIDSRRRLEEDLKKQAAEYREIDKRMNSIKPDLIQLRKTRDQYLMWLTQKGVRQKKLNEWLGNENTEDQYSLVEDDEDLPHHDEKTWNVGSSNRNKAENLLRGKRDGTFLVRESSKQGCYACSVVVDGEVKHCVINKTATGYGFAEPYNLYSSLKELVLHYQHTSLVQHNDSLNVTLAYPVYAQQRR

`CCN1CC(C)(C)Oc2nc(N3CC4CCC(C3)O4)nc(-c3ccc(NC(=O)Nc4ccc(OCCOC)cn4)cc3)c2C1=O` [Example 40, 1-{4-[6-Ethyl-8,8-dimethyl-2-(8-oxa-3-azabicyclo[3.2.1]oct-3-yl)-5-oxo-5,6,7,8-tetrahydro-9-oxa-1,3,6-triazabenzocyclohepten-4-yl]phenyl}-3-[5-(2-methoxyethoxy)pyridin-2-yl]urea]: the IC50 came to 274 nM in the assay with U87MG tumour cells (Homo sapiens, U-87 MG, 72 h); 56 nM in assay [1]; 59 nM in the assay on Akt-pS473 in U87MG cells (setting [2]). The “PI3Ka IC50” value at PI3Kα (p110α/p85α) is reported as more than 10000 nM.
Take `CNC(=O)Nc1ccc(-c2nc(N3C4CCC3COC4)nc3c2C(=O)N(C)CC(C)(C)O3)cc1` [Example 43, 1-Methyl-3-{4-[6,8,8-trimethyl-2-(3-oxa-8-azabicyclo[3.2.1]oct-8-yl)-5-oxo-5,6,7,8-tetrahydro-9-oxa-1,3,6-triazabenzocyclohepten-4-yl]phenyl}urea]: the IC50 amounted to 82 nM in the assay with U87MG tumour cells (Homo sapiens, U-87 MG, 72 h); 27 nM in assay [1]; 20 nM in the assay with Akt-pS473 in U87MG cells (setting [2]). The “PI3Ka IC50” value on PI3Kα (p110α/p85α) was determined as 4730 nM.
For `CCN1CC(C)(C)Oc2nc(N3CCOC[C@@H]3C)nc(-c3ccc(NC(=O)Nc4ccc(C(=O)N5CCC(N(C)C)CC5)cc4)cc3)c2C1=O` [Example 23, 1-[4-(4-dimethylaminopiperidine-1-carbonyl)phenyl]-3-{4-[6-ethyl-8,8-dimethyl-2-((S)-3-methylmorpholin-4-yl)-5-oxo-5,6,7,8-tetrahydro-9-oxa-1,3,6-triazabenzocyclohepten-4-yl]phenyl}urea] the same measures were 30 nM, 51 nM, 62 nM and 79 nM.
For `CCN1CC(C)(C)Oc2nc(N3C4CCC3COC4)nc(-c3ccc(NC(=O)Nc4cc(OC)ccn4)cc3F)c2C1=O` [Example 89, 1-{4-[6-Ethyl-8,8-dimethyl-2-(3-oxa-8-azabicyclo[3.2.1]oct-8-yl)-5-oxo-5,6,7,8-tetrahydro-9-oxa-1,3,6-triazabenzocyclohepten-4-yl]-3-fluorophenyl}-3-(4-methoxypyridin-2-yl)urea] the same measures were 221 nM, 84 nM, 260 nM and more than 10000 nM.
For `CCN1CC(C)(C)Oc2nc(N3CC4CCC(C3)O4)nc(-c3ccc(NC(=O)Nc4ccc(C(=O)N5CCC(N(C)C)CC5)cc4)cc3)c2C1=O` [Example 177, 1-[4-(4-Dimethylaminopiperidine-1-carbonyl)phenyl]-3-{4-[6-ethyl-8,8-dimethyl-2-(8-oxa-3-azabicyclo[3.2.1]oct-3-yl)-5-oxo-5,6,7,8-tetrahydro-9-oxa-1,3,6-triazabenzocyclohepten-4-yl]phenyl}urea] the same measures were 57 nM, 84 nM, 435 nM and 87 nM.
On to `CNC(=O)Nc1ccc(-c2nc(N3CC4CCC(C3)O4)nc3c2C(=O)N(C)CC(C)(C)O3)cc1F` [Example 45, 1-{2-Fluoro-4-[6,8,8-trimethyl-2-(8-oxa-3-azabicyclo[3.2.1]oct-3-yl)-5-oxo-5,6,7,8-tetrahydro-9-oxa-1,3,6-triazabenzocyclohepten-4-yl]phenyl}-3-methylurea], for which the IC50 in the assay on U87MG tumour cells (Homo sapiens, U-87 MG, 72 h) worked out at 85 nM; in assay [1], 24 nM; with Akt-pS473 in U87MG cells (setting [2]), 32 nM. In addition, the “PI3Ka IC50” value at PI3Kα (p110α/p85α) is given as 4000 nM.
The like results for `CCNC(=O)Nc1ccc(-c2nc(N3CC4CCC(C3)O4)nc3c2C(=O)N(CCC(=O)OC(C)(C)C)CC(C)(C)O3)cc1` [Example 120, 3-[4-[4-(3-Ethylureido)phenyl]-8,8-dimethyl-2-(8-oxa-3-azabicyclo[3.2.1]oct-3-yl)-5-oxo-7,8-dihydro-5H-9-oxa-1,3,6-triazabenzocyclohepten-6-yl]propionic acid tert-butyl ester] were, in that order, 2260 nM, 351 nM, 1180 nM and more than 10000 nM.
For `CCN1CC(C)(C)Oc2nc(N3CCOC[C@@H]3C)nc(-c3ccc(NC(=O)Nc4ccc(C)cn4)cc3)c2C1=O` [Example 169, 1-{4-[6-Ethyl-8,8-dimethyl-2-((S)-3-methylmorpholin-4-yl)-5-oxo-5,6,7,8-tetrahydro-9-oxa-1,3,6-triazabenzocyclohepten-4-yl]phenyl}-3-(5-methylpyridin-2-yl)urea], the IC50 amounted to 299 nM with U87MG tumour cells; 31 nM in assay [1]; 26 nM with Akt-pS473 in U87MG cells (read-out: U87 Akt-pS473 % Inhibition or IC50, nM (IC50), U87MG cells). In addition, the “PI3Ka IC50” value at PI3Kα (p110α/p85α) amounted to 1450 nM.
Take `CCN1CC(C)(C)Oc2nc(N3CC4CCC(C3)O4)nc(-c3ccc(NC(=O)Nc4cc(C)on4)cc3)c2C1=O` [Example 116, 1-{4-[6-Ethyl-8,8-dimethyl-2-(8-oxa-3-azabicyclo[3.2.1]oct-3-yl)-5-oxo-5,6,7,8-tetrahydro-9-oxa-1,3,6-triazabenzocyclohepten-4-yl]phenyl}-3-(5-methylisoxazol-3-yl)urea]: the IC50 with U87MG tumour cells (Homo sapiens, U-87 MG, 72 h) was found to be 282 nM; in assay [1], 42 nM; in the assay on Akt-pS473 in U87MG cells (setting [2]) it was 98 nM. Besides, the “PI3Ka IC50” value at PI3Kα (p110α/p85α) is 4310 nM.
The like results for `CCN1CC(C)(C)Oc2nc(N3CC4CCC(C3)O4)nc(-c3ccc(Nc4nc5ccccc5[nH]4)cc3)c2C1=O` [Example 118, 4-[4-(1H-Benzimidazol-2-ylamino)phenyl]-6-ethyl-8,8-dimethyl-2-(8-oxa-3-azabicyclo[3.2.1]oct-3-yl)-7,8-dihydro-6H-9-oxa-1,3,6-triazabenzocyclohepten-5-one] were, in that order, 233 nM, 58 nM, 32 nM and 5040 nM.
The like results for `CCN1CC(C)(C)Oc2nc(N3CC4CCC(C3)O4)nc(-c3ccc(NC(=O)Nc4ccccn4)cc3)c2C1=O` [Example 33, 1-{4-[6-Ethyl-8,8-dimethyl-2-(8-oxa-3-azabicyclo[3.2.1]oct-3-yl)-5-oxo-5,6,7,8-tetrahydro-9-oxa-1,3,6-triazabenzocyclohepten-4-yl]phenyl}-3-pyridin-2-ylurea] were, in that order, 226 nM, 24 nM, 42 nM and 9240 nM.
The like results for `Cn1ccc(NC(=O)Nc2ccc(-c3nc(N4CC5CCC(C4)O5)nc4c3C(=O)N(C3CCOCC3)CC(C)(C)O4)cc2)n1` [Example 16, 1-{4-[8,8-dimethyl-2-(8-oxa-3-azabicyclo[3.2.1]oct-3-yl)-5-oxo-6-(tetrahydropyran-4-yl)-5,6,7,8-tetrahydro-9-oxa-1,3,6-triazabenzocyclohepten-4-yl]phenyl}-3-(1-methyl-1H-pyrazol-3-yl)urea] were, in that order, 527 nM, 19 nM, 269 nM and more than 10000 nM.
With `CCN1CC(C)(C)Oc2nc(N3CCOC[C@@H]3C)nc(-c3ccc(NC(=O)Nc4cc(OC)c(F)cc4F)cc3)c2C1=O` [Example 208, 1-(2,4-Difluoro-5-methoxyphenyl)-3-{4-[6-ethyl-8,8-dimethyl-2-((S)-3-methylmorpholin-4-yl)-5-oxo-5,6,7,8-tetrahydro-9-oxa-1,3,6-triazabenzocyclohepten-4-yl]phenyl}urea], the IC50 in the assay on U87MG tumour cells (Homo sapiens, U-87 MG, 72 h) turned out to be 181 nM; in assay [1], 81 nM; in the assay with Akt-pS473 in U87MG cells (setting [2]) it was 26 nM. Also, on PI3Kα (p110α/p85α), the “PI3Ka IC50” value amounted to 1240 nM.
The like results for `COCCN1CC(C)(C)Oc2nc(N3CC4CCC(C3)O4)nc(-c3ccc(NC(=O)Nc4ccc(OC)nc4)c(F)c3)c2C1=O` [Example 178, 1-{2-Fluoro-4-[6-(2-methoxyethyl)-8,8-dimethyl-2-(8-oxa-3-azabicyclo[3.2.1]oct-3-yl)-5-oxo-5,6,7,8-tetrahydro-9-oxa-1,3,6-triazabenzocyclohepten-4-yl]phenyl}-3-(6-methoxypyridin-3-yl)urea] were, in that order, 252 nM, 45 nM, 104 nM and more than 10000 nM.
With `CCN1CC(C)(C)Oc2nc(N3CCOC[C@@H]3C)nc(-c3ccc(NC(=O)Nc4ccc(C)cn4)cc3)c2C1=O` [Example 168, 1-{4-[6-Ethyl-8,8-dimethyl-2-((S)-3-methylmorpholin-4-yl)-5-oxo-5,6,7,8-tetrahydro-9-oxa-1,3,6-triazabenzocyclohepten-4-yl]phenyl}-3-(5-methylpyridin-2-yl)urea], the IC50 came to 231 nM with U87MG tumour cells (Homo sapiens, U-87 MG, 72 h); 18 nM in assay [1]; 48 nM in the assay with Akt-pS473 in U87MG cells (setting [2]). For the same compound, at PI3Kα (p110α/p85α), the “PI3Ka IC50” value was 1385 nM.
For `CCN1CC(C)(C)Oc2nc(N3CC4CCC(C3)O4)nc(-c3ccc(NC(=O)Nc4cnn(C)c4)cc3)c2C1=O` [Example 126, 1-{4-[6-Ethyl-8,8-dimethyl-2-(8-oxa-3-azabicyclo[3.2.1]oct-3-yl)-5-oxo-5,6,7,8-tetrahydro-9-oxa-1,3,6-triazabenzocyclohepten-4-yl]phenyl}-3-(1-methyl-1H-pyrazol-4-yl)urea] the same measures were 225 nM, 13 nM, 68 nM and 2963 nM.

The values above are taken from US9120812B2, “Pyrimidooxazocine derivatives as mTOR-inhibitors” (SANOFI, priority 2012, dated 2015).
